Read-outs that look alike come from different tables or passages of the source.
Experiments:
Assay in all cases: selectivity profiling in a panel of 340 wild-type kinases (Reaction Biology Europe)
Type in all cases: binding
340 wild-type kinases [1] = target: T1, 340 wild-type kinases (Homo sapiens, UniProt O00418)
T1 construct: purchased Reaction Biology Europe
T1 sequence (O00418 1-725): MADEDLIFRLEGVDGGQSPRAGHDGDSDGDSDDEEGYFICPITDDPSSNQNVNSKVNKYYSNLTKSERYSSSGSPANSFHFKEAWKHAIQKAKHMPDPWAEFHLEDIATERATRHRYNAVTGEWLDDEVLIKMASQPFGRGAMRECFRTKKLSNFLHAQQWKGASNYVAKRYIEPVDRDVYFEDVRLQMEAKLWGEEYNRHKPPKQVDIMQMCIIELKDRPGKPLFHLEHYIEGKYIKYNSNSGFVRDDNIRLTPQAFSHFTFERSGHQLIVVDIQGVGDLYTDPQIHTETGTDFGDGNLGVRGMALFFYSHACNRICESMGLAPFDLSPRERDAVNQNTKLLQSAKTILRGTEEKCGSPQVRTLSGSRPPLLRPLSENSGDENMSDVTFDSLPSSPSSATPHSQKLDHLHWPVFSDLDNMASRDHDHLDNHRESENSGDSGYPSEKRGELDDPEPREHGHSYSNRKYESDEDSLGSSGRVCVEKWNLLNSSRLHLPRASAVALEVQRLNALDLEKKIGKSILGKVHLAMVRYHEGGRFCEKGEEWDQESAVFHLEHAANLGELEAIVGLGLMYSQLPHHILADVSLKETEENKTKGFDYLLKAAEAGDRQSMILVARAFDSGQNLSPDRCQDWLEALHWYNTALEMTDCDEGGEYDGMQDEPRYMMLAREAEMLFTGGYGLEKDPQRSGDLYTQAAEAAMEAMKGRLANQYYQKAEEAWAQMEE

340 wild-type kinases [2] = target: T2, 340 wild-type kinases (Homo sapiens, UniProt O00238)
T2 construct: purchased Reaction Biology Europe
T2 sequence (O00238 14-502): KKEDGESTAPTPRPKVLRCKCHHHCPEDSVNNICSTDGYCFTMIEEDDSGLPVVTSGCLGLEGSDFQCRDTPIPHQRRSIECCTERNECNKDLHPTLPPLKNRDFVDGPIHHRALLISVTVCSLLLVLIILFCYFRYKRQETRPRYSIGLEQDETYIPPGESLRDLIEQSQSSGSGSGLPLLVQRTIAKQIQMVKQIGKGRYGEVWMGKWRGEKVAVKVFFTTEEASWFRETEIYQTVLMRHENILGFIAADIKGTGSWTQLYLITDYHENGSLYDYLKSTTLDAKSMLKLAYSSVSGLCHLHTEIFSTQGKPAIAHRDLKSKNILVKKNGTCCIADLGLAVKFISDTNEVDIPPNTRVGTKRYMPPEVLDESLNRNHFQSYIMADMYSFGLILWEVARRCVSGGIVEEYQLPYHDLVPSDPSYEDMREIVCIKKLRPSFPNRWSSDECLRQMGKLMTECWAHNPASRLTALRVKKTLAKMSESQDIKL

340 wild-type kinases [3] = target: T3, 340 wild-type kinases (Homo sapiens, UniProt P19525)
T3 construct: purchased Reaction Biology Europe
T3 sequence (P19525 whole entry): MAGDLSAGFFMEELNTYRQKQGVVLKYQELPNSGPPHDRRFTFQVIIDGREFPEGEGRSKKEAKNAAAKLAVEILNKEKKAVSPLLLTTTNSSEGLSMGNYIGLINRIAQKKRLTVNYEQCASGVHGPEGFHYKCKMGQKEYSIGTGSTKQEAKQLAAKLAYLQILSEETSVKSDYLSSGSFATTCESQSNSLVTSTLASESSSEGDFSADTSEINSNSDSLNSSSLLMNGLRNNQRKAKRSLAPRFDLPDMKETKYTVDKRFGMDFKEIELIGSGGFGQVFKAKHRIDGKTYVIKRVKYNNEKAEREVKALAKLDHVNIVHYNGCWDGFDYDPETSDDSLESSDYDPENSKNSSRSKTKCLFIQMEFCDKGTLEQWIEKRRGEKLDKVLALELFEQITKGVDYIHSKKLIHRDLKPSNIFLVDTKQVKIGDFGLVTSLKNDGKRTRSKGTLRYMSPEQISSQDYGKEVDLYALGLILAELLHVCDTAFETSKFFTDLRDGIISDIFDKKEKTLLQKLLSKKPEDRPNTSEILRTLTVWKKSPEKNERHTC

340 wild-type kinases [4] = target: T4, 340 wild-type kinases (Homo sapiens, UniProt P78362)
T4 construct: purchased Reaction Biology Europe
T4 sequence (P78362 whole entry): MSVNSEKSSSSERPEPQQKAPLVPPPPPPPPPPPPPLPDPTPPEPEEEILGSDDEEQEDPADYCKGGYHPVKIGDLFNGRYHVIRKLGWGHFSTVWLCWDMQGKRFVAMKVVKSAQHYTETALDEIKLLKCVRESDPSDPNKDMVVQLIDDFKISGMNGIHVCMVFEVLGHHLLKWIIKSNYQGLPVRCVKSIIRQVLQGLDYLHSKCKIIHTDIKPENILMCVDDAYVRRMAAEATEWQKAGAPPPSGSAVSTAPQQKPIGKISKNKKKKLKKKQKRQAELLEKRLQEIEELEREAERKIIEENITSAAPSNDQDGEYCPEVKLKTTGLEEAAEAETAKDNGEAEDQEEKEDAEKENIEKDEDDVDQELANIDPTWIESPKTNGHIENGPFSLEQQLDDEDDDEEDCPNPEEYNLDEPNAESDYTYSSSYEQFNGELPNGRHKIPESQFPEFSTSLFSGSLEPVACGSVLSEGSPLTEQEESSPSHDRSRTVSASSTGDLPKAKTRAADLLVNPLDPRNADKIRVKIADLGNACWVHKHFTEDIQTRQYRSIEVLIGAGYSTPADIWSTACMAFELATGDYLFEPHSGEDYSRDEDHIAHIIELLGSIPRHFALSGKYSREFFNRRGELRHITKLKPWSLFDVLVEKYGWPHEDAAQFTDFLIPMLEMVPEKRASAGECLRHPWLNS

340 wild-type kinases [5] = target: T5, 340 wild-type kinases (Homo sapiens, UniProt Q13188)
T5 construct: purchased Reaction Biology Europe
T5 sequence (Q13188 1-491): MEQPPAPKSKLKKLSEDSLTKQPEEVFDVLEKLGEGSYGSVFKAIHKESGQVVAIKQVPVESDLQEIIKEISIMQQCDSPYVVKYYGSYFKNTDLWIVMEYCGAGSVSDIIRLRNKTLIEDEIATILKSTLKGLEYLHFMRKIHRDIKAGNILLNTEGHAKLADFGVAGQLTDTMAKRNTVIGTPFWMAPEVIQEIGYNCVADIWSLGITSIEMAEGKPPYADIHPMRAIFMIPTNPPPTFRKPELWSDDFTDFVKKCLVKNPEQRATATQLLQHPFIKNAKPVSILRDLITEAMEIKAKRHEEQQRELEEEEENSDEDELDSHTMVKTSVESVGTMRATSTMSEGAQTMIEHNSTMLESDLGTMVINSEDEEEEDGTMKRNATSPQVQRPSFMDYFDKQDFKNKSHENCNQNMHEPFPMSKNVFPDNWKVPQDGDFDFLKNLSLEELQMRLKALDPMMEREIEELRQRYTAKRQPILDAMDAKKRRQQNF

340 wild-type kinases [6] = target: T6, 340 wild-type kinases (Homo sapiens, UniProt Q9Y2H1)
T6 construct: purchased Reaction Biology Europe
T6 sequence (Q9Y2H1 whole entry): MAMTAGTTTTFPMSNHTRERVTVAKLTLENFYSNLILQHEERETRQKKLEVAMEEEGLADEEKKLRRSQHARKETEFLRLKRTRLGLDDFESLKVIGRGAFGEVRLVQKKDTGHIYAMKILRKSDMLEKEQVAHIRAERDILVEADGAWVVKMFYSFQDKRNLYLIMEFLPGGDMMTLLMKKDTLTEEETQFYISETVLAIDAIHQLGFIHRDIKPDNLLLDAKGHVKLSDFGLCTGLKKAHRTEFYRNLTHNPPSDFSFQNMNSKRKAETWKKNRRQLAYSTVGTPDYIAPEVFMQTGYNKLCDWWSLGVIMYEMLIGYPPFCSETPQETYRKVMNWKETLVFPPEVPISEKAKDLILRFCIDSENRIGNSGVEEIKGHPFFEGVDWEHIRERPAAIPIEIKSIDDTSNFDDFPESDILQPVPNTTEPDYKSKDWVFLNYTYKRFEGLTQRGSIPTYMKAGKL

340 wild-type kinases [7] = target: T7, 340 wild-type kinases (Homo sapiens, UniProt Q16644)
T7 construct: purchased Reaction Biology Europe
T7 sequence (Q16644 whole entry): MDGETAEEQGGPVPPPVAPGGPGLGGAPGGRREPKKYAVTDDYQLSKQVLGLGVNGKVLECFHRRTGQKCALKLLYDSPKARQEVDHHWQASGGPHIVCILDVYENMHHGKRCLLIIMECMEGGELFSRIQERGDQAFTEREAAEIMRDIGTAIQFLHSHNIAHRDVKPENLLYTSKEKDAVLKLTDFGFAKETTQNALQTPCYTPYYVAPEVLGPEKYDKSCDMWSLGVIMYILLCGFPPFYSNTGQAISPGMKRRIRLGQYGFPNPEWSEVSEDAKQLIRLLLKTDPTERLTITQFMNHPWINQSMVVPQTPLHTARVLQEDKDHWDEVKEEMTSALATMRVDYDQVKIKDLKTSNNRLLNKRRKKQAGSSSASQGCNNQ

340 wild-type kinases [8] = conditions: for residual activity: RAF1 YDYD

CNC(=O)c1ccc2c(c1)C(=O)c1ccc(Nc3ccc(F)c(NC(=O)C4CC4)c3)cc1CC2 [Compound 2015]
remaining activity at 0.2 µM (340 wild-type kinases [1]; 0.2 µM 2015, read-out: EEF2K residual activity): 106%
remaining activity at 1 µM (340 wild-type kinases [1]; 1 µM 2015, read-out: EEF2K residual activity): 98.4%
remaining activity at 0.2 µM (340 wild-type kinases [1]; EEF2K, 0.2 µM, read-out: residual activity): 106%
remaining activity at 1 µM (340 wild-type kinases [1]; EEF2K, 1 µM, read-out: residual activity): 98.4%
remaining activity at 0.2 µM (340 wild-type kinases [2]; 0.2 µM 2015, read-out: BMPR1B residual activity): 105%
remaining activity at 1 µM (340 wild-type kinases [2]; 1 µM 2015, read-out: BMPR1B residual activity): 103%
remaining activity at 0.2 µM (340 wild-type kinases [2]; BMPR1B, 0.2 µM, read-out: residual activity): 105%
remaining activity at 1 µM (340 wild-type kinases [2]; BMPR1B, 1 µM, read-out: residual activity): 103%
remaining activity at 0.2 µM (340 wild-type kinases [3]; 0.2 µM 2015, read-out: EIF2AK2 residual activity): 84.5%
remaining activity at 1 µM (340 wild-type kinases [3]; 1 µM 2015, read-out: EIF2AK2 residual activity): 85.2%
remaining activity at 0.2 µM (340 wild-type kinases [3]; EIF2AK2, 0.2 µM, read-out: residual activity): 84.5%
remaining activity at 1 µM (340 wild-type kinases [3]; EIF2AK2, 1 µM, read-out: residual activity): 85.2%
remaining activity at 0.2 µM (340 wild-type kinases [4]; 0.2 µM 2015, read-out: SRPK2 residual activity): 89.5%
remaining activity at 1 µM (340 wild-type kinases [4]; 1 µM 2015, read-out: SRPK2 residual activity): 91.2%
remaining activity at 0.2 µM (340 wild-type kinases [4]; SRPK2, 0.2 µM, read-out: residual activity): 89.5%
remaining activity at 1 µM (340 wild-type kinases [4]; SRPK2, 1 µM, read-out: residual activity): 91.2%
remaining activity at 0.2 µM (340 wild-type kinases [5]; 0.2 µM 2015, read-out: MST2 residual activity): 115%
remaining activity at 1 µM (340 wild-type kinases [5]; 1 µM 2015, read-out: MST2 residual activity): 106%
remaining activity at 0.2 µM (340 wild-type kinases [5]; MST2, 0.2 µM, read-out: residual activity): 115%
remaining activity at 1 µM (340 wild-type kinases [5]; MST2, 1 µM, read-out: residual activity): 106%
remaining activity at 0.2 µM (340 wild-type kinases [6]; 0.2 µM 2015, read-out: NDR2 residual activity): 97.8%
remaining activity at 1 µM (340 wild-type kinases [6]; 1 µM 2015, read-out: NDR2 residual activity): 96.6%
remaining activity at 0.2 µM (340 wild-type kinases [6]; NDR2, 0.2 µM, read-out: residual activity): 97.8%
remaining activity at 1 µM (340 wild-type kinases [6]; NDR2, 1 µM, read-out: residual activity): 96.7%
remaining activity at 0.2 µM (340 wild-type kinases [7]; 0.2 µM 2015, read-out: MAPKAPK3 residual activity): 97.3%
remaining activity at 1 µM (340 wild-type kinases [7]; 1 µM 2015, read-out: MAPKAPK3 residual activity): 86.1%
remaining activity at 0.2 µM (340 wild-type kinases [7]; MAPKAPK3, 0.2 µM, read-out: residual activity): 97.3%
remaining activity at 1 µM (340 wild-type kinases [7]; MAPKAPK3, 1 µM, read-out: residual activity): 86.1%
PKCbeta2 residual activity (340 wild-type kinases [8]; 0.2 µM 2015): 102.668%
PKCbeta2 residual activity (340 wild-type kinases [8]; 1 µM 2015): 108.52%
residual activity (340 wild-type kinases [8]; 0.2 µM): 80.31%
residual activity (340 wild-type kinases [8]; 1 µM): 88.78%
effect on p38α and p38β (in words) (340 wild-type kinases [8]; panel of 340 kinases, 1 µM and 0.2 µM): specifically inhibited

Source: article PMC11864979, “First-in-class ultralong-target-residence-time p38α inhibitors as a mitosis-targeted therapy for colorectal cancer” (Nature Cancer, 2025)
